Structures are written as SMILES. pEC50: −log10 of the molar value. Structures can show the parent of a compound that is named as a salt.

S1P1 receptor, sequence (P21453 whole entry): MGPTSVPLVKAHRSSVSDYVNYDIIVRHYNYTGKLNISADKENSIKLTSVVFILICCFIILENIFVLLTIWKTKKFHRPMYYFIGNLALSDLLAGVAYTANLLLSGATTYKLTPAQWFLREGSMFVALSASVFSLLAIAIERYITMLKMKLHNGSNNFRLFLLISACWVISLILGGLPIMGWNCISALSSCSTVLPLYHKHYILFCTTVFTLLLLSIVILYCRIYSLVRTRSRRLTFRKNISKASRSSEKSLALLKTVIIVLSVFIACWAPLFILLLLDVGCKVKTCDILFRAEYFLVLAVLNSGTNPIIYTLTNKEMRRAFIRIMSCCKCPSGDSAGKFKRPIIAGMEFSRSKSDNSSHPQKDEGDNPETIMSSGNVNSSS

The assay addresses S1P1 receptor (Homo sapiens, UniProt P21453). The assay can be described thus: 35S-GTPγS binding, membranes from CHO cells expressing S1P1. Particulars: CHO cell membranes expressing S1P1. It counts as biochemical. A digest of the protocol: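 Membranes (1–10 μg) from CHO cells expressing the receptor were incubated with compound in 20 mM HEPES pH 7.4, 10 mM MgCl2, 140 mM NaCl, 1.7 μM GDP, saponin and 0.2% BSA. [35S]GTPγS (added at 1.5 nM) was then bound for 60 min at 30 °C. Membrane-bound radioactivity, averaged over triplicates, is expressed relative to S1P activation (n=2).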
On the technique in general: Binding of GTPγS marks nucleotide exchange on a G protein.
For `COc1cccc(-c2noc(-c3nnn(-c4ccccc4F)c3-c3ccccn3)n2)c1` [Example 70, 2-{1-(2-fluorophenyl)-4-[3-(3-methoxyphenyl)-1,2,4-oxadiazol-5-yl]-1H-1,2,3-triazol-5-yl}pyridine], the pEC50 was 6.55. For `Fc1ccccc1-c1noc(-c2nnn(-c3ccccc3F)c2C2CCCO2)n1` (stereo not drawn) [Example 53, 3-(2-fluorophenyl)-5-[1-(2-fluorophenyl)-5-(tetrahydrofuran-2-yl)-1H-1,2,3-triazol-4-yl]-1,2,4-oxadiazole] the value was 6.68. For `CC(=O)Nc1ccc(-c2noc(-c3nnn(-c4ccccc4F)c3-c3ccncc3)n2)cn1` [Example 145, N-(5-{5-[1-(2-fluorophenyl)-5-pyridin-4-yl-1H-1,2,3-triazol-4-yl]-1,2,4-oxadiazol-3-yl}pyridin-2-yl)acetamide] the value was 6.64.

Compound `COc1ccc(F)cc1-c1noc(-c2nnn(-c3ccccc3F)c2-c2ccncc2)n1` [Example 122, 4-[4-[3-(5-fluoro-2-methoxyphenyl)-1,2,4-oxadiazol-5-yl]-1-(2-fluorophenyl)-1H-1,2,3-triazol-5-yl]pyridine] showed a pEC50 of 7.25. In the case of `COc1ccc(-c2noc(-c3nnn(-c4ccccc4F)c3-c3ccncc3)n2)cn1` [Example 126, 5-{5-[1-(2-fluorophenyl)-5-pyridin-4-yl-1H-1,2,3-triazol-4-yl]-1,2,4-oxadiazol-3-yl}-2-methoxypyridine] it was 6.65; in that of `Fc1ccccc1-n1nnc(-c2nc(-c3ccoc3)no2)c1-c1ccncc1` [Example 88, 4-{1-(2-fluorophenyl)-4-[3-(3-furyl)-1,2,4-oxadiazol-5-yl]-1H-1,2,3-triazol-5-yl}pyridine], 6.02. For `COCc1c(-c2nc(-c3cccc4[nH]ccc34)no2)nnn1-c1ccccc1F` [Example 90, 4-{5-[1-(2-fluorophenyl)-5-(methoxymethyl)-1H-1,2,3-triazol-4-yl]-1,2,4-oxadiazol-3-yl}-1H-indole] the value was 6.69; for `Fc1ccccc1-n1nnc(-c2nc(-c3cnccn3)no2)c1-c1ccncc1` [Example 119, 2-{5-[1-(2-fluorophenyl)-5-pyridin-4-yl-1H-1,2,3-triazol-4-yl]-1,2,4-oxadiazol-3-yl}pyrazine], 5.90; for `OC1CN(Cc2ccc(-c3noc(-c4nnn(-c5ccccc5F)c4-c4ccncc4)n3)cc2)C1` [Example 135, 1-(4-{5-[1-(2-fluorophenyl)-5-pyridin-4-yl-1H-1,2,3-triazol-4-yl]-1,2,4-oxadiazol-3-yl}benzyl)azetidin-3-ol], 7.74. In turn, `Fc1ccc(F)c(-c2noc(-c3nnn(-c4ccccc4F)c3CNCC3CC3)n2)c1` [Example 112, 1-cyclopropyl-N-{[4-[3-(2,5-difluorophenyl)-1,2,4-oxadiazol-5-yl]-1-(2-fluorophenyl)-1H-1,2,3-triazol-5-yl]methyl}methanamine] had a pEC50 of 6.09. For `Fc1ccccc1-n1nnc(-c2nc(-c3cccc(Cn4ccnc4)c3)no2)c1-c1ccncc1` [Example 82, 4-(1-(2-fluorophenyl)-4-{3-[3-(1H-imidazol-1-ylmethyl)phenyl]-1,2,4-oxadiazol-5-yl}-1H-1,2,3-triazol-5-yl)pyridine] the value was 6.75; for `O=C(O)[C@H]1CC[C@@H](NCc2ccc(-c3noc(-c4nnn(-c5ccccc5F)c4-c4ccncc4)n3)cc2)CC1` [Example 163], 7.10. Turning to `Fc1ccccc1-n1nnc(-c2nc(-c3ccc(CN4CCOCC4)cc3)no2)c1-c1ccncc1` [Example 98, 4-(4-{5-[1-(2-fluorophenyl)-5-pyridin-4-yl-1H-1,2,3-triazol-4-yl]-1,2,4-oxadiazol-3-yl}benzyl)morpholine], the pEC50 is 6.36. Compound `COc1ccccc1-c1noc(-c2nnn(-c3ccccc3F)c2-c2ccccn2)n1` [Example 67, 2-{1-(2-fluorophenyl)-4-[3-(2-methoxyphenyl)-1,2,4-oxadiazol-5-yl]-1H-1,2,3-triazol-5-yl}pyridine] showed a pEC50 of 6.06.

`OCCNCc1cccc(-c2noc(-c3nnn(-c4ccccc4F)c3-c3ccncc3)n2)c1` [Example 132, 2-[(3-{5-[1(2-fluorophenyl)-5-pyridin-4-yl-1H-1,2,3-triazol-4-yl]-1,2,4-oxadiazol-3-yl}benzyl)amino]ethanol formate] showed a pEC50 of 6.42. In the case of `O=C(O)[C@H]1CC[C@@H](NCc2ccc(-c3noc(-c4nnn(-c5ccccc5F)c4-c4ccncc4)n3)cc2)C1` [Example 169, (1S, 3R)-3-(4-(5-(1-(2-fluorophenyl)-5-(pyridin-4-yl)-1H-1,2,3-triazol-4-yl)-1,2,4-oxadiazol-3-yl)benzylamino)cyclopentanecarboxylic acid] it was 8.10; in that of `Fc1ccc(F)c(-c2noc(-c3nnn(-c4ccccc4F)c3C3CCCO3)n2)c1` (stereo not drawn) [Example 71, 3-(2,5-difluorophenyl)-5-[1-(2-fluorophenyl)-5-(tetrahydrofuran-2-yl)-1H-1,2,3-triazol-4-yl]-1,2,4-oxadiazole], 6.75; in that of `CN(CCO)Cc1ccc(-c2noc(-c3nnn(-c4ccccc4F)c3-c3ccncc3)n2)cc1` [Example 144, 2-[(4-{5-[1-(2-fluorophenyl)-5-pyridin-4-yl-1H-1,2,3-triazol-4-yl]-1,2,4-oxadiazol-3-yl}benzyl)(methyl)amino]ethanol], 6.97. For `Fc1ccc(Br)c(-c2noc(-c3nnn(-c4ccccc4F)c3-c3ccncc3)n2)c1` [Example 149, 4-[4-[3-(2-bromo-5-fluorophenyl)-1,2,4-oxadiazol-5-yl]-1-(2-fluorophenyl)-1H-1,2,3-triazol-5-yl]pyridine], the negative-log EC50 (pEC50) is 7.41.

As to `COCc1c(-c2nc(-c3ccc(Cn4cncn4)cc3)no2)nnn1-c1ccccc1F` [Example 176, 5-[1-(2-fluorophenyl)-5-(methoxymethyl)-1H-1,2,3-triazol-4-yl]-3-[4-(1H-1,2,4-triazol-1-ylmethyl)phenyl]-1,2,4-oxadiazole], the pEC50 was 6.98. In the case of `Fc1ccccc1-c1noc(-c2nnn(-c3ccccc3F)c2C2CC2)n1` [Example 85, 5-[5-cyclopropyl-1-(2-fluorophenyl)-1H-1,2,3-triazol-4-yl]-3-(2-fluorophenyl)-1,2,4-oxadiazole] it was 6.35; in that of `Nc1cc(-c2noc(-c3nnn(-c4ccccc4F)c3-c3ccncc3)n2)ccn1` [Example 152, 4-{5-[1-(2-fluorophenyl)-5-pyridin-4-yl-1H-1,2,3-triazol-4-yl]-1,2,4-oxadiazol-3-yl}pyridin-2-amine], 7.11; in that of `Fc1ccccc1-n1nnc(-c2nc(-c3ccncc3)no2)c1C1CCCO1` (stereo not drawn) [Example 56, 4-{5-[1-(2-fluorophenyl)-5-(tetrahydrofuran-2-yl)-1H-1,2,3-triazol-4-yl]-1,2,4-oxadiazol-3-yl}pyridine], 5.73. In the case of `O=C(O)[C@H]1CCC[C@H]1NCc1ccc(-c2noc(-c3nnn(-c4ccccc4F)c3-c3ccncc3)n2)cc1` [Example 177, (1S,2R)-2-[(4-{5-[1-(2-fluorophenyl)-5-pyridin-4-yl-1H-1,2,3-triazol-4-yl]-1,2,4-oxadiazol-3-yl}benzyl)amino]cyclopentanecarboxylic acid] it was 6.13; in that of `Oc1ccc(-c2noc(-c3nnn(-c4ccccc4F)c3-c3ccncc3)n2)cc1` [Example 64, 4-{5-[1-(2-fluorophenyl)-5-pyridin-4-yl-1H-1,2,3-triazol-4-yl]-1,2,4-oxadiazol-3-yl}phenol], 8.10.

Take `Nc1c(Cl)cc(-c2noc(-c3nnn(-c4ccccc4F)c3-c3ccncc3)n2)cc1Cl` [Example 117, 2,6-dichloro-4-{5-[1-(2-fluorophenyl)-5-pyridin-4-yl-1H-1,2,3-triazol-4-yl]-1,2,4-oxadiazol-3-yl}aniline]: the pEC50 was 8.05. Take `OCc1ccc(-c2noc(-c3nnn(-c4ccccc4F)c3-c3ccncc3)n2)cc1` [Example 108, (4-{5-[1-(2-fluorophenyl)-5-pyridin-4-yl-1H-1,2,3-triazol-4-yl]-1,2,4-oxadiazol-3-yl}phenyl)methanol]: the negative logarithm of the EC50 (pEC50) was 7.68. In the case of `CC(=O)N1CCc2cc(-c3noc(-c4nnn(-c5ccccc5F)c4-c4ccncc4)n3)ccc21` [Example 153, 1-acetyl-5-{5-[1-(2-fluorophenyl)-5-pyridin-4-yl-1H-1,2,3-triazol-4-yl]-1,2,4-oxadiazol-3-yl}indoline] it was 7.05. In the case of `COCCc1c(-c2nc(-c3cc(F)ccc3F)no2)nnn1-c1ccccc1F` [Example 44, 3-(2,5-difluorophenyl)-5-[1-(2-fluorophenyl)-5-(2-methoxyethyl)-1H-1,2,3-triazol-4-yl]-1,2,4-oxadiazole] it was 7.28.

Turning to `Cc1c(-c2nc(-c3cc(F)ccc3F)no2)nnn1-c1ccccc1F` [Example 2, 3-[2,5-Difluorophenyl)-5-[1-(2-fluorophenyl)-5-methyl-1H-1,2,3-triazole-4-yl]-1,2,4-oxadiazole], the pEC50 was 5.95.

As a reminder, the pEC50 is the negative decadic logarithm of the EC50, by convention in mol/L. Higher therefore signals a small EC50.

The values above are taken from patent publication US8202856B2 (Merck Serono SA, priority 2007, dated 2012).
